Source: patent US10377791B2, “Therapeutically active estratrienthiazole derivatives as inhibitors of 17 B-hydroxysteroid dehydrogenase, type 1” (FORENDO PHARMA LTD, priority 2013, dated 2019)
Like-named read-outs stand apart in the source and are kept apart here.

Assays:
[1] = biological target: T1, recombinant human 17β-HSD2 (Homo sapiens, UniProt P37059); experiment: Inhibition of recombinant human 17β-HSD2; assay type: biochemical; settings: read-out: 17β-HSD2 Inhibition % at 1 μM
T1 construct: made in house; host or cells: Sd9 (Sf9) insect cells, baculovirus (Bac to Bac Expression System)
T1 sequence (P37059 1-387): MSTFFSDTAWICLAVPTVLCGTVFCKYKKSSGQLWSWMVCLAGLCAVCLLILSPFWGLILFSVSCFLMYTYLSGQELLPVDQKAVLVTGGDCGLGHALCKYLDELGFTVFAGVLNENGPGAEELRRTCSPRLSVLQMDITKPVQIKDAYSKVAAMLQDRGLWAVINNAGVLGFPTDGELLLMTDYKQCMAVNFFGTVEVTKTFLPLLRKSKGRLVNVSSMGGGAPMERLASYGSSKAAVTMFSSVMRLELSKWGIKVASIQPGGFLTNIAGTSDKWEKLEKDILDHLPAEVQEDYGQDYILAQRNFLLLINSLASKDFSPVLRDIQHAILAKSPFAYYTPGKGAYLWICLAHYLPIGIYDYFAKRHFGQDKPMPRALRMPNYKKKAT
Protocol: Similarly to 17β-HSD1 the Recombinant baculovirus was generated by the “Bac to Bac Expression System” (Invitrogen). Recombinant bacmid was transfected to Sd9 insect cells using “Cellfectin Reagent” (Invitrogen). 60 h later cells were harvested and supernatant were fractionated by the following protocol: • cells were dissolved into 40 ml of A-buffer (40 mM TRIS, pH8.0, 20% glycerol, 20 μM NAD, 0.4 mM PMSF, 150 mM NaCl, 0.5% dodecyl-β-maltoside+protease inhibitor cocktail) • cells were sonicated • lysate was incubated on ice for 15 min • lysate was centrifuged 5000 rpm 15 min, +4° C. • centrifugation of the supernatant 180 000 g 30 min, +4° C. • pellet was dissolved into 8 ml of A-buffer • not resuspended material was removed by centrifugation 5000 rpm 15 min, +4° C. • the clear supernatant was divided into 100 μl aliquots and were stored frozen until determination of enzymatic activity.
The amount of 17β-HSD2 was analysed by immunoblotting and total protein concentration of each extract batch was determined.
Recombinant protein (4 μg/ml) was incubated in 20 mM KH2PO4 pH 8.5 with 50 nM estradiol (including 800 000 cpm/ml of ^3H-estradiol) and 1 mM NADH for 30 min at RT, in the presence of the potential inhibitor at concentrations 1 μM or 0.1 μM. Inhibitor stock solutions were prepared in DMSO. Final concentration of DMSO was adjusted to 1% in all samples. The enzyme reaction was stopped by addition of 10% trichloroacetic acid (final concentration). Samples were centrifuged in a microtiter plate at 4000 rpm for 10 min. Supernatants were applied to reverse phase HPLC on a Waters Symmetry C18 column, equipped with a Waters Sentry Guard column. Isocratic HPLC runs were performed at RT at a flow rate of 1 ml/min in acetonitrile:water 48:52 as running solvent. Radioactivity was monitored in the eluate by a Packard Flow Scintillation Analyzer. Total radioactivity for estrone and estradiol were determined in each sample and percent conversion of estradiol to estrone was calculated according to the following formula:
(§1) [formula] Percent inhibition was calculated flowingly: % inhibition=100−% conversion

[2] = biological target: T2, recombinant human 17β-HSD1 (Homo sapiens, UniProt P14061); experiment: Inhibition of recombinant human 17β-HSD1; assay type: biochemical; settings: read-out: 17β-HDS1 Inhibition % at 1 μM
T2 construct: made in house; host or cells: Sd9 (Sf9) insect cells, baculovirus (Bac to Bac Expression System)
T2 sequence (P14061 1-328): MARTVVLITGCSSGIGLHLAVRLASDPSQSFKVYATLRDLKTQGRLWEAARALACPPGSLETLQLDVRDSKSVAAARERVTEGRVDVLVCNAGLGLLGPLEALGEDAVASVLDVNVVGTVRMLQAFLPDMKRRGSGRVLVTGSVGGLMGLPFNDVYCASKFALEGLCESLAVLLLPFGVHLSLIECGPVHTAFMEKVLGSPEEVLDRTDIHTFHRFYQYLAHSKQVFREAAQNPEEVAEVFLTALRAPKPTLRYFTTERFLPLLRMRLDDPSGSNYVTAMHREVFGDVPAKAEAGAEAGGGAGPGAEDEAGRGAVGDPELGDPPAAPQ
Protocol: Recombinant baculovirus was generated by the “Bac to Bac Expression System” (Invitrogen). Recombinant bacmid was transfected to Sd9 insect cells using “Cellfectin Reagent” (Invitrogen). 60 h later cells were harvested; the microsomal fraction was isolated as described by Puranen, T. J., Poutanen, M. H., Peltoketo, H. E., Vihko, P. T. and Vihko, R. K. (1994) Site-directed mutagenesis of the putative active site of human 17 β-hydroxysteroid dehydrogenase type 1. Biochem. J. 304: 289-293. Aliquots were stored frozen until determination of enzymatic activity.
Recombinant protein (1 μg/ml) was incubated in 20 mM KH2PO4 pH 7.4 with 30 nM estrone (including 800 000 cpm/ml of ^3H-estrone) and 1 mM NADPH for 30 min at RT, in the presence of the potential inhibitor at concentrations 1 μM or 0.1 μM. Inhibitor stock solutions were prepared in DMSO. Final concentration of DMSO was adjusted to 1% in all samples. The enzyme reaction was stopped by addition of 10% trichloroacetic acid (final concentration). Samples were centrifuged in a microtiter plate at 4000 rpm for 10 min. Supernatants were applied to reverse phase HPLC on a Waters Symmetry C18 column, equipped with a Waters Sentry Guard column. Isocratic HPLC runs were performed at RT at a flow rate of 1 ml/min in acetonitrile:water 48:52 as running solvent. Radioactivity was monitored in the eluate by a Packard Flow Scintillation Analyzer. Total radioactivity for estrone and estradiol were determined in each sample and percent conversion of estrone to estradiol was calculated according to the following formula:
as §1

[3] = inhibitor at 1 μM, 50 nM estradiol, 1 mM NADH, 30 min at RT
[4] = inhibitor at 1 μM, 30 nM estrone, 1 mM NADPH, 30 min at RT

Row | SMILES | inhibition at 1 µM [1] [%] | inhibition at 1 µM [2] [%] | inhibition at 1 µM [1, 3] [%] | inhibition at 1 µM [2, 4] [%]
1 | Cc1cnc(NC(=O)CC[C@@H]2CC(=O)[C@@]3(C)CCC4c5ccc(OC(=O)N(C)C)cc5CCC4C23)s1 (stereo partly drawn) [Compound 25, Dimethyl-carbamic acid (13S,15R)-13-methyl-15-[2-(5-methylthiazol-2-ylcarbamoyl)-ethyl]-17-oxo-7,8,9,11,12,13,14,15,16,17-decahydro-6H-cyclopenta[a]phenanthren-3-yl ester] | 6 | 52 | – | –
2 | Cc1cnc(NC(=O)CC[C@@H]2CC(=O)[C@@]3(C)CCC4c5ccc(OC(=O)CNC(=O)OC(C)(C)C)cc5CCC4C23)s1 (stereo partly drawn) [Compound 15, tert-Butoxycarbonylamino-acetic acid (13S,15R)-13-methyl-15-[2-(5-methylthiazol-2-ylcarbamoyl)-ethyl]-17-oxo-7,8,9,11,12,13,14,15,16,17-decahydro-6H-cyclopenta[a]phenanthren-3-yl ester] | – | – | 0 | 66
3 | Cc1cnc(NC(=O)CC[C@@H]2CC(=O)[C@@]3(C)CCC4c5cc([N+](=O)[O-])c(O)cc5CCC4C23)s1 (stereo partly drawn) [Compound 34, 3-((13S,15R)-3-hydroxy-13-methyl-2-nitro-17-oxo-7,8,9,11,12,13,14,15,16,17-decahydro-6H-cyclopenta[a]phenanthren-15-yl)-N-(5-methylthiazol-2-yl)propanamide] | – | – | 10 | 91
4 | Cc1cnc(NC(=O)CC[C@@H]2CC(=O)[C@@]3(C)CCC4c5ccc(OS(N)(=O)=O)cc5CCC4C23)s1 (stereo partly drawn) [Compound 4, Sulphamic acid (13S,15R)-13-methyl-15-[2-(5-methylthiazol-2-ylcarbamoyl)-ethyl]-17-oxo-7,8,9,11,12,13,14,15,16,17-decahydro-6H-cyclopenta[a]phenanthren-3-yl ester] | – | – | 3 | 82
5 | Cc1cnc(NC(=O)CC[C@@H]2CC(=O)[C@@]3(C)CCC4c5ccc(OS(=O)(=O)N(C)C)cc5CCC4C23)s1 (stereo partly drawn) [Compound 23, Dimethyl-sulphamic acid (13S,15R)-13-methyl-15-[2-(5-methylthiazol-2-ylcarbamoyl)-ethyl]-17-oxo-7,8,9,11,12,13,14,15,16,17-decahydro-6H-cyclopenta[a]phenanthren-3-yl ester] | – | – | 6 | 74
6 | Cc1cnc(NC(=O)CC[C@@H]2CC(=O)[C@@]3(C)CCC4c5cc([N+](=O)[O-])c(O)c([N+](=O)[O-])c5CCC4C23)s1 (stereo partly drawn) [Compound 36, 3-((13S,15R)-3-hydroxy-13-methyl-2,4-dinitro-17-oxo-7,8,9,11,12,13,14,15,16,17-decahydro-6H-cyclopenta[a]phenanthren-15-yl)-N-(5-methylthiazol-2-yl)propanamide] | 33 | 87 | – | –
7 | Cc1cnc(NC(=O)CC[C@@H]2CC(=O)[C@@]3(C)CCC4c5cccc(C(C)(C)C)c5CCC4C23)s1 (stereo partly drawn) [Compound 105, 3-((13S,15R)-4-(tert-butyl)-13-methyl-17-oxo-7,8,9,11,12,13,14,15,16,17-decahydro-6H-cyclopenta[a]phenanthren-15-yl)-N-(5-methylthiazol-2-yl)propanamide] | – | – | 16 | 90
8 | COc1cc2c(cc1I)C1CC[C@]3(C)C(=O)C[C@@H](CCC(=O)Nc4ncc(C)s4)C3C1CC2 (stereo partly drawn) [Compound 52, 3-((13S,15R)-2-iodo-3-methoxy-13-methyl-17-oxo-7,8,9,11,12,13,14,15,16,17-decahydro-6H-cyclopenta[a]phenanthren-15-yl)-N-(5-methylthiazol-2-yl)propanamide] | – | – | 1 | 93
9 | Cc1cnc(NC(=O)CC[C@@H]2CC(=O)[C@@]3(C)CCC4c5ccc(O)c(Br)c5CCC4C23)s1 (stereo partly drawn) [Compound 57, 3-((13S,15R)-4-bromo-3-hydroxy-13-methyl-17-oxo-7,8,9,11,12,13,14,15,16,17-decahydro-6H-cyclopenta[a]phenanthren-15-yl)-N-(5-methylthiazol-2-yl)propanamide] | – | – | 16 | 92
10 | Cc1cnc(NC(=O)CC[C@@H]2CC(=O)[C@@]3(C)CCC4c5ccc(O)c(C#N)c5CCC4C23)s1 (stereo partly drawn) [Compound 92, 3-((13S,15R)-4-cyano-3-hydroxy-13-methyl-17-oxo-7,8,9,11,12,13,14,15,16,17-decahydro-6H-cyclopenta[a]phenanthren-15-yl)-N-(5-methylthiazol-2-yl)propanamide] | – | – | 0 | 97
11 | Cc1cnc(NC(=O)CC[C@@H]2CC(=O)[C@@]3(C)CCC4c5ccc(OC(=O)CN(C)C)cc5CCC4C23)s1 (stereo partly drawn) [Compound 26, Dimethylamino-acetic acid (13S,15R)-13-methyl-15-[2-(5-methylthiazol-2-ylcarbamoyl)-ethyl]-17-oxo-7,8,9,11,12,13,14,15,16,17-decahydro-6H-cyclopenta[a]phenanthren-3-yl ester] | – | – | 6 | 96
12 | CC(=O)Oc1ccccc1C(=O)Oc1ccc2c(c1)CCC1C2CC[C@]2(C)C(=O)C[C@@H](CCC(=O)Nc3ncc(C)s3)C12 (stereo partly drawn) [Compound 19, 2-Acetoxy-benzoic acid (13S,15R)-13-methyl-15-[2-(5-methylthiazol-2-ylcarbamoyl)-ethyl]-17-oxo-7,8,9,11,12,13,14,15,16,17-decahydro-6H-cyclopenta[a]phenanthren-3-yl ester] | – | – | 0 | 58
13 | Cc1cnc(NC(=O)CC[C@@H]2CC(=O)[C@@]3(C)CCC4c5cc([N+](=O)[O-])ccc5CCC4C23)s1 (stereo partly drawn) [Compound 84, 3-((13S,15R)-13-methyl-2-nitro-17-oxo-7,8,9,11,12,13,14,15,16,17-decahydro-6H-cyclopenta[a]phenanthren-15-yl)-N-(5-methylthiazol-2-yl)propanamide] | – | – | 1 | 93
14 | Cc1cnc(NC(=O)CC[C@@H]2CC(=O)[C@@]3(C)CCC4c5ccc(O)c(Cl)c5CCC4C23)s1 (stereo partly drawn) [Compound 63, 3-((13S,15R)-4-chloro-3-hydroxy-13-methyl-17-oxo-7,8,9,11,12,13,14,15,16,17-decahydro-6H-cyclopenta[a]phenanthren-15-yl)-N-(5-methylthiazol-2-yl)propanamide] | – | – | 21 | 99
